Reference: patent US20250052016A1, “ARTIFICIAL TURF COMPRISING ANTIMICROBIAL POLYURETHANE BACKING” (Synthetic Turf Resources (STR), priority 2022, published 2025)

How the values were obtained:
E. coli = settings: added in the polyurethane reaction mixture in amounts of 0.1 wt % to 0.5 wt %
S. aureus = settings: added in the polyurethane reaction mixture in amounts of 0.1 wt % to 0.5 wt %

zinc pyrithione
effectiveness against E. coli (E. coli): particularly effective
effectiveness against S. aureus (S. aureus): particularly effective
